# Experimental data from patent US20260232616A1, “USE OF SIVELESTAT IN ANALGESIA” (SHANGHAI HUILUN PHARMACEUTICAL CO., LTD., priority 2023, published 2026).
# Marks after values point to notes of the source that are not given here.
# Tested on: rat model of postoperative pain
# Assay: Mechanical allodynia testing in a rat model of postoperative pain (hind paw incision)
# Assay type: in vivo
# Settings: for Mechanical allodynia threshold (PWT (g)): single dose
# [1] = Sivelestat sodium 100 mg/kg IP, 0.5 h
# [2] = Sivelestat sodium 100 mg/kg IP, 1 h
# [3] = Sivelestat sodium 100 mg/kg IP, 2 h
# [4] = Sivelestat sodium 150 mg/kg IP, 0.5 h
# [5] = Sivelestat sodium 150 mg/kg IP, 1 h
# [6] = Sivelestat sodium 150 mg/kg IP, 2 h
# [7] = Sivelestat sodium 150 mg/kg IP, 6 h
# [8] = Sivelestat sodium 200 mg/kg IP, 0.5 h
# [9] = Sivelestat sodium 200 mg/kg IP, 1 h
# [10] = Sivelestat sodium 200 mg/kg IP, 2 h
# [11] = Sivelestat sodium 300 mg/kg IP, 0.5 h
# [12] = Sivelestat sodium 300 mg/kg IP, 1 h
# [13] = Sivelestat sodium 300 mg/kg IP, 2 h
structure (smiles),measurement,setting,value
"CC(C)(C)C(=O)Oc1ccc(S(=O)(=O)Nc2ccccc2C(=O)NCC(=O)O)cc1 [Sivelestat sodium, sivelestat sodium]",% MPE (anti-allodynic effect),[1],25.2* %
same,% MPE (anti-allodynic effect),[2],42.4*** %
same,% MPE (anti-allodynic effect),[3],44.1*** %
same,Mechanical allodynia threshold (PWT (g)),[1],5.5 g
same,Mechanical allodynia threshold (PWT (g)),[2],7.8 g
same,Mechanical allodynia threshold (PWT (g)),[3],8.3 g
same,% MPE (anti-allodynic effect),[4],31.4*** %
same,% MPE (anti-allodynic effect),[5],51.1*** %
same,% MPE (anti-allodynic effect),[6],48.4*** %
same,% MPE (anti-allodynic effect),[7],11.3%
same,Mechanical allodynia threshold (PWT (g)),[4],6.3 g
same,Mechanical allodynia threshold (PWT (g)),[5],8.9 g
same,Mechanical allodynia threshold (PWT (g)),[6],8.8 g
same,Mechanical allodynia threshold (PWT (g)),[7],3.9 g
same,% MPE (anti-allodynic effect),[8],32.6*** %
same,% MPE (anti-allodynic effect),[9],55.1*** %
same,% MPE (anti-allodynic effect),[10],45.3*** %
same,Mechanical allodynia threshold (PWT (g)),[8],6.4 g
same,Mechanical allodynia threshold (PWT (g)),[9],9.4 g
same,Mechanical allodynia threshold (PWT (g)),[10],8.4 g
same,% MPE (anti-allodynic effect),[11],37.5*** %
same,% MPE (anti-allodynic effect),[12],49*** %
same,% MPE (anti-allodynic effect),[13],52.6*** %
same,Mechanical allodynia threshold (PWT (g)),[11],7.0 g
same,Mechanical allodynia threshold (PWT (g)),[12],8.6 g
same,Mechanical allodynia threshold (PWT (g)),[13],9.3 g
same,duration of a high level of analgesic efficacy,"rat postoperative pain model, conclusion from Embodiment 1",more than 6 h
